Assay results reported in PubChem BioAssay AID264 (DTP/NCI, 2004).
Values joined by “and” are separate entries in the source; they are usually repeats but may differ in a detail not shown here. Identical values can stand only once. Records with an inconclusive call do not appear.

System: nude mice, LX-1 lung xenograft intrarenal, tumor weight T/C
Experiment: NCI In Vivo Anticancer Drug Screen. Data for tumor model Human Lung LX-1 Xenograft (intrarenal inoculation) in NU/NU Swiss (nude) mice
Conditions: endpoint: mean tumor weight change, higher = larger tumour
Outline: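 Antitumor effect is expressed as a ratio: the mean tumor measurement of the drug-treated group relative to that of the vehicle-dosed control group.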

[1] = dose: 300.0 mg/kg/injection, schedule: Q04DX003 (sc), vehicle: Klucel (hydroxypropylcellulose) (HPC)
[2] = dose: 600.0 mg/kg/injection, schedule: Q04DX003 (sc), vehicle: Klucel (hydroxypropylcellulose) (HPC)
[3] = dose: 1200.0 mg/kg/injection, schedule: Q04DX003 (sc), vehicle: Klucel (hydroxypropylcellulose) (HPC)
[4] = dose: 2400.0 mg/kg/injection, schedule: Q04DX003 (sc), vehicle: Klucel (hydroxypropylcellulose) (HPC)
[5] = dose: 150.0 mg/kg/injection, schedule: Q04DX003 (sc), vehicle: saline with Tween-80
[6] = dose: 300.0 mg/kg/injection, schedule: Q04DX003 (sc), vehicle: saline with Tween-80
[7] = dose: 600.0 mg/kg/injection, schedule: Q04DX003 (sc), vehicle: saline with Tween-80
[8] = dose: 1200.0 mg/kg/injection, schedule: Q04DX003 (sc), vehicle: saline with Tween-80
[9] = dose: 2400.0 mg/kg/injection, schedule: Q04DX003 (sc), vehicle: saline with Tween-80

SMILES: COc1cc(NS(C)(=O)=O)ccc1Nc1c2ccccc2nc2ccccc12
- T/C (dose: 0.47 mg/kg/injection, schedule: Q01DX010 (sc), vehicle: clinical formulation): 151 % of control
- T/C (dose: 0.75 mg/kg/injection, schedule: Q01DX010 (sc), vehicle: other): 99 % of control
- T/C (dose: 0.94 mg/kg/injection, schedule: Q01DX010 (sc), vehicle: lactic acid): 84 % of control
- T/C (dose: 1.5 mg/kg/injection, schedule: Q01DX010 (sc), vehicle: other): 88 % of control
- T/C (dose: 1.88 mg/kg/injection, schedule: Q01DX010 (sc), vehicle: clinical formulation): 110 % of control
- T/C (dose: 1.88 mg/kg/injection, schedule: Q01DX010 (sc), vehicle: lactic acid): 109 % of control
- T/C (dose: 3.0 mg/kg/injection, schedule: Q01DX010 (sc), vehicle: other): 64 % of control
- T/C (dose: 3.75 mg/kg/injection, schedule: Q01DX010 (sc), vehicle: lactic acid): 46 % of control

SMILES: CN(C)C(=O)SC1=C(c2c(Cl)cccc2Cl)C(=O)c2ccccc21
- T/C [1]: 84 % of control
- T/C [2]: 106 % of control
- T/C [3]: 65 % of control
- T/C [4]: 92 % of control

SMILES: COc1cc2c[n+](C)c3c4cc5c(cc4ccc3c2cc1OC)OCO5
- T/C (dose: 100.0 mg/kg/injection, schedule: Q04DX003 (sc), vehicle: saline with Tween-80): 157 % of control
- T/C (dose: 200.0 mg/kg/injection, schedule: Q04DX003 (sc), vehicle: saline with Tween-80): 92 % of control
- T/C (dose: 800.0 mg/kg/injection, schedule: Q04DX003 (sc), vehicle: saline with Tween-80): 109 % of control

SMILES: C[C@]12CC[C@H]3[C@@H](CCC4=C[C@@H](OC5OCC(OC6OC(CO)C(O)C(O)C6O)C(O)C5O)CC[C@@]43C=O)[C@@]1(O)CCC2C1=CC(=O)OC1 (stereo partly drawn)
- T/C (dose: 7.5 mg/kg/injection, schedule: Q04DX003 (sc), vehicle: Klucel (hydroxypropylcellulose) (HPC)): 77 % of control
- T/C (dose: 30.0 mg/kg/injection, schedule: Q04DX003 (sc), vehicle: Klucel (hydroxypropylcellulose) (HPC)): 79 % of control
- T/C (dose: 60.0 mg/kg/injection, schedule: Q04DX003 (sc), vehicle: Klucel (hydroxypropylcellulose) (HPC)): 79 % of control

SMILES: O=P(O)(NCCCl)NCCCl
- T/C (dose: 150.0 mg/kg/injection, schedule: Q04DX003 (sc), vehicle: saline): 33 % of control

SMILES: C=C/C(C)=C/[C@H](C)C(=O)C[C@H](O)CC1CC(=O)NC(=O)C1
- T/C (dose: 75.0 mg/kg/injection, schedule: Q04DX003 (sc), vehicle: saline with Tween-80): 111 % of control
- T/C [5]: 61 % of control
- T/C [6]: 69 % of control
- T/C [7]: 70 % of control

SMILES: CC[C@@]1(O)C[C@H](OC2CC(N(C)C)C(OC3CC(O)C(OC4CCC(=O)C(C)O4)C(C)O3)C(C)O2)c2c(cc3c(c2O)C(=O)c2c(O)cccc2C3=O)[C@H]1C(=O)OC (stereo partly drawn)
- T/C (dose: 0.5 mg/kg/injection, schedule: Q01DX010 (sc), vehicle: water): 105 % of control
- T/C (dose: 1.0 mg/kg/injection, schedule: Q01DX010 (sc), vehicle: water): 69 % of control
- T/C (dose: 1.66 mg/kg/injection, schedule: Q04DX003 (ip), vehicle: water): 24 % of control
- T/C (dose: 2.0 mg/kg/injection, schedule: Q01DX010 (sc), vehicle: water): 83 % of control
- T/C (dose: 3.33 mg/kg/injection, schedule: Q04DX003 (ip), vehicle: water): 22 % of control

SMILES: Nc1nc2c(ncn2C2OC(CO)C(O)C2O)c(=O)[nH]1 (stereo not drawn)
- T/C [6]: 50 % of control
- T/C [7]: 54 % of control
- T/C [8]: 42 % of control
- T/C [9]: 46 % of control

SMILES: ClCc1ccc2ccccc2n1
- T/C [5]: 158 % of control
- T/C [6]: 105 % of control
- T/C [7]: 77 % of control

SMILES: CC1=NNC(=O)C1CCO (stereo not drawn)
- T/C [1]: 112 % of control
- T/C [2]: 115 % of control
- T/C [3]: 82 % of control
- T/C [4]: 106 % of control

SMILES: Cc1cc(N(CC(C)Br)CC(C)Br)ccc1N=Nc1ccccc1C(=O)O (stereo not drawn)
- T/C (dose: 3.13 mg/kg/injection, schedule: Q01DX010 (sc), vehicle: saline with Tween-80): 85 % of control
- T/C (dose: 6.25 mg/kg/injection, schedule: Q01DX010 (sc), vehicle: saline with Tween-80): 151 % of control

SMILES: O=NN(CCF)C(=O)NC1CCCCC1
- T/C (dose: 6.25 mg/kg/injection, schedule: Q04DX003 (sc), vehicle: Klucel (hydroxypropylcellulose) (HPC)): 66 % of control
- T/C (dose: 12.5 mg/kg/injection, schedule: Q04DX003 (sc), vehicle: Klucel (hydroxypropylcellulose) (HPC)): 39 % of control

SMILES: CC(C)[NH-].CC(C)[NH-].O.O.[Cl][Pt+2][Cl]
- T/C (dose: 3.12 mg/kg/injection, schedule: Q01DX010 (sc), vehicle: dextrose): 62 % of control
- T/C (dose: 6.25 mg/kg/injection, schedule: Q01DX010 (sc), vehicle: dextrose): 60 % of control
- T/C (dose: 12.5 mg/kg/injection, schedule: Q01DX010 (sc), vehicle: dextrose): 53 % of control
- T/C (dose: 25.0 mg/kg/injection, schedule: Q01DX010 (sc), vehicle: dextrose): 64 % of control

SMILES: C=CS(C=C)=NS(=O)(=O)c1ccc(C)cc1
- T/C (dose: 18.75 mg/kg/injection, schedule: Q04DX003 (sc), vehicle: Klucel (hydroxypropylcellulose) (HPC)): 108 % of control
- T/C (dose: 37.5 mg/kg/injection, schedule: Q04DX003 (sc), vehicle: Klucel (hydroxypropylcellulose) (HPC)): 163 % of control
- T/C (dose: 75.0 mg/kg/injection, schedule: Q04DX003 (sc), vehicle: Klucel (hydroxypropylcellulose) (HPC)): 71 % of control

SMILES: COC1CC(C)C(OC)c2cc(O)cc(c2O)NC(=O)/C(C)=C/C=C\C(C)C(OC(N)=O)/C(C)=C\C(C)C1OC (stereo not drawn)
- T/C (dose: 25.0 mg/kg/injection, schedule: Q04DX003 (sc), vehicle: saline + alcohol): 86 % of control
- T/C (dose: 50.0 mg/kg/injection, schedule: Q04DX003 (sc), vehicle: saline + alcohol): 93 % of control
- T/C (dose: 100.0 mg/kg/injection, schedule: Q04DX003 (sc), vehicle: saline + alcohol): 82 % of control

SMILES: O=c1[nH]cnc2c1ccn2C1OC(CO)C(O)C1O (stereo not drawn)
- T/C (dose: 12.5 mg/kg/injection, schedule: Q04DX003 (sc), vehicle: saline): 88 % of control
- T/C (dose: 50.0 mg/kg/injection, schedule: Q04DX003 (sc), vehicle: saline): 47 % of control

SMILES: COc1cccc2c1C(=O)c1c(O)c3c(c(O)c1C2=O)C[C@@](O)(/C(C)=N/NC(=O)c1ccccc1)C[C@@H]3OC1CC(N)C(O)C(C)O1 (stereo partly drawn)
- T/C (dose: 2.5 mg/kg/injection, schedule: Q04DX003 (sc), vehicle: water): 113 % of control
- T/C (dose: 10.0 mg/kg/injection, schedule: Q04DX003 (sc), vehicle: water): 68 % of control and 71 % of control and 93 % of control
- T/C (dose: 18.75 mg/kg/injection, schedule: Q04DX003 (sc), vehicle: water): 57 % of control
- T/C (dose: 20.0 mg/kg/injection, schedule: Q04DX003 (sc), vehicle: water): 69 % of control and 79 % of control and 87 % of control
- T/C (dose: 37.5 mg/kg/injection, schedule: Q04DX003 (sc), vehicle: water): 36 % of control
- T/C (dose: 40.0 mg/kg/injection, schedule: Q04DX003 (sc), vehicle: water): 71 % of control
- T/C (dose: 75.0 mg/kg/injection, schedule: Q04DX003 (sc), vehicle: water): 18 % of control
- T/C (dose: 80.0 mg/kg/injection, schedule: Q04DX003 (sc), vehicle: water): 79 % of control

SMILES: Nc1ccc2nc3ccc(N)cc3[n+](-c3ccccc3)c2c1
- T/C (dose: 36.0 mg/kg/injection, schedule: Q04DX003 (sc), vehicle: saline): 110 % of control
- T/C (dose: 72.0 mg/kg/injection, schedule: Q04DX003 (sc), vehicle: saline): 70 % of control

SMILES: O=C1NC(=O)/C(=C/C=C/c2ccccc2)S1
- T/C [6]: 87 % of control
- T/C [7]: 118 % of control
- T/C [8]: 94 % of control
- T/C [9]: 62 % of control

SMILES: CC1CN1C(=O)NCCCCCCNC(=O)N1CC1C (stereo not drawn)
- T/C (dose: 40.0 mg/kg/injection, schedule: Q04DX003 (sc), vehicle: Klucel (hydroxypropylcellulose) (HPC)): 6 % of control and 23 % of control

SMILES: CN1CCN(CCCN2c3ccccc3Sc3ccc(C(F)(F)F)cc32)CC1
- T/C (dose: 6.25 mg/kg/injection, schedule: Q01DX010 (sc), vehicle: saline): 97 % of control
- T/C (dose: 12.5 mg/kg/injection, schedule: Q01DX010 (sc), vehicle: saline): 124 % of control
- T/C (dose: 100.0 mg/kg/injection, schedule: Q01DX010 (sc), vehicle: saline): 63 % of control and 66 % of control and 87 % of control
- T/C (dose: 400.0 mg/kg/injection, schedule: Q01DX010 (sc), vehicle: saline): 31 % of control

SMILES: CC1=CC2C(O)(CC(CO)=CC3C4C(C)(C)C4(OC(=O)c4ccccc4)C(OC(=O)c4ccccc4)C(C)C32O)C1=O (stereo not drawn)
- T/C (dose: 1.25 mg/kg/injection, schedule: Q04DX003 (sc), vehicle: saline with Tween-80): 77 % of control
- T/C (dose: 2.5 mg/kg/injection, schedule: Q04DX003 (sc), vehicle: saline with Tween-80): 73 % of control
- T/C (dose: 5.0 mg/kg/injection, schedule: Q04DX003 (sc), vehicle: saline with Tween-80): 76 % of control
- T/C (dose: 10.0 mg/kg/injection, schedule: Q04DX003 (sc), vehicle: saline with Tween-80): 43 % of control
